Consider 7 compounds from patent publication US20250186461A1, “METHODS AND COMPOSITIONS FOR TREATING AND/OR PREVENTING HERNIAS” (Northwestern University, priority 2023, published 2025).

Assay [1] has as its system PGR expression in LAM fibroblasts of Arom^hum mice. The assay can be described thus: E2/ESR1-induced PGR expression (mRNA, immunoblotting) in LAM fibroblasts. The note with it: for E2-induced expression of Pgr (mRNA): 100 nM ICI 182,780 or 10 μM MPP, pretreated 2 h, E2 10 nM. The assay is classed as cell-based, mouse. How it is done: (A) Time course of E2 (10 nM) effect on PGR protein expression in LAM fibroblasts of Arom^hum mice. […] (E) PGR protein levels in LAM primary fibroblasts from WT and Arom^hum mice after treatment with ICI with or without E2 for 48 h. Cells were pretreated with ICI or MPP for 2 h before adding E2. Data are representative of 3 independent experiments; B-actin serves as a loading control for (A) and (E). Vch: vehicle. […] MPP: A selective ESR1 antagonist.
Breast cancer cell line T47D served as a positive control.
On the technique in general: Immunoblotting shows a protein as a band on a membrane.

The test system of assay [2] is WT mice. Put plainly: E2/P4-induced hernia formation in WT mice. The assay is classed as in vivo, mouse. The note with it: WT male mice. The source says:
All placebo-treated Arom^hum mice developed hernias starting from 5 weeks of age. None of the WT littermates developed hernias. […] The mouse scrotum is connected to the peritoneal cavity with a narrow funicular (or inguinal) canal, with walls composed of LAM tissue. Structurally normal LAM tissue is essential to maintain the tone of this canal and prevent herniation of the bowel.
Experiment 1a1: Does the addition of P4 to E2 treatment accelerate LAM fibrosis and hernia formation in WT mice? It was shown that treatment of male WT mice with extremely high doses of systemic estrogens starting around or after the onset of puberty caused inguinal hernia in one third to half of these animals^23-25. We hypothesize that this effect is primarily mediated by the E2 induction of PGR expression in LAM fibroblasts. Male mice have readily detectable P4 levels in the circulation and LAM tissue to activate PGR in LAM fibroblasts (FIG. 6). If this were true, the addition of pharmacologic quantities of P4 (75 mg/pellet for 12-week release)^73 to E2 (0.3 mg/pellet for 12-week release)^23-25 in WT mice should accelerate this phenotype. Our ongoing preliminary study, whereby a 6-week treatment with P4+E2 induced large inguinal hernia in all WT mice (FIG. 7A), supports the following experiment. Long-term (8 weeks or longer) treatment with E2 only is anticipated to cause hernias in up to half of WT mice based on previous findings^23-25. We will determine whether P4+E2 treatment over 12 weeks will give rise to larger hernias in a higher number of mice compared with E2-only treatment. […] See Statistical Methods above for sample size calculation. Hernia surface area will be measured using a digital caliper and calculated as previously described (length×width)^19. At the designated endpoints, LAM and UAM (control) from each mouse will be resected, with one-half of the tissue snap-frozen in liquid nitrogen, and the other half fixed in 4% phosphate-buffered paraformaldehyde for histological and IHC analyses (see below). […]

For assay [3], the system named is Arom^hum mice. The following applies: previously shown (ref 19); cited from earlier work.
For assay [4], the system named is Arom^hum mice. The following applies: earlier work of the applicant (refs 19, 22); cited from earlier work.
For assay [5], the system named is Arom^hum mice. The assay can be described thus: Hernia prevention in Arom^hum mice (treatment before hernia formation). The assay is classed as in vivo, mouse. The following applies: male Arom^hum mice; 12-week treatment started at 3-3.5 weeks of age (before hernia formation); vs placebo. The source says: Our study design is robust, utilizing Arom^hum mice with endpoints examined after treatment with placebo or anti-P4/PGR, and compared to those of WT littermates using 2 different tissue sites: UAM and LAM (normal or weakened/herniated). Inguinal hernia affects predominantly men vs. women (10:1 ratio). Inguinal hernias are unique to male mice and aged men. […] Here, we will focus on the effects of P4/PGR action on skeletal muscle integrity and hernia formation in males, and our work will be carried out in male mice or tissues primarily from men over 50 years of age. We will use mouse or human tissues or primary cells to closely recapitulate in vivo pathology.
The mouse scrotum is connected to the peritoneal cavity with a narrow funicular (or inguinal) canal, with walls composed of LAM tissue. Structurally normal LAM tissue is essential to maintain the tone of this canal and prevent herniation of the bowel.
Experiment 1a1: Does the addition of P4 to E2 treatment accelerate LAM fibrosis and hernia formation in WT mice? […] We hypothesize that this effect is primarily mediated by the E2 induction of PGR expression in LAM fibroblasts. […] If this were true, the addition of pharmacologic quantities of P4 (75 mg/pellet for 12-week release)^73 to E2 (0.3 mg/pellet for 12-week release)^23-25 in WT mice should accelerate this phenotype. […] See Statistical Methods above for sample size calculation. Hernia surface area will be measured using a digital caliper and calculated as previously described (length×width)^19. At the designated endpoints, LAM and UAM (control) from each mouse will be resected, with one-half of the tissue snap-frozen in liquid nitrogen, and the other half fixed in 4% phosphate-buffered paraformaldehyde for histological and IHC analyses (see below). All tissue and serum (for P4/E2 levels) samples will be collected between 10:00 AM and noon to avoid possible variability in daily hormone fluctuations. […] We will continue to complete the rest of the proposed study in this subaim. We will also assess whether and extent of muscle fibrosis and atrophy will be induced in P4+E2-induced large hernias and E2-induced small hernias. […] P4 antagonists show various levels of selectivity for PGR. […] The use of 3 distinct P4/PGR antagonists with different properties will establish the role of PGR in muscle fibrosis and hernia.
Hernias will be classified as small, medium, or large if the bulging area through muscle tissue is 125-175 mm^2, 175-225 mm^2, or >225 mm^2, respectively. […] We will assess whether muscle fibrosis, atrophy, and hernia are arrested or reversed. […] Hernia size will be measured. After completion of treatment, the mice will be dissected, and LAM, UAM (control), and serum will be collected. A total of 100 mg of tissue (LAM and UAM) will be obtained and frozen for measurement of tissue E2/P4.

Assay [6] concerns Arom^hum mice. The assay can be described thus: Reversal of existing (large) hernias in Arom^hum mice. The assay is classed as in vivo, mouse. The note with it: Arom^hum mice with large hernias; 3.75 mg/pellet, 12-week subcutaneous release; n=10-11. The source says: Arrows in panels B and D point to hernias.
The scrotal area in WT mice is under ˜125 mm^2. We classified hernias as small, medium, or large based on the bulging area through muscle tissue of 125-175 mm^2, 175-225 mm^2, or ≥225 mm^2, respectively. […] Since long-term anti-E2/ESR1 treatments cause significant side effects (e.g., sexual dysfunction or osteoporosis), we mechanistically explored the specific and major downstream effectors of E2/ESR1 signaling leading to muscle fibrosis. […] The key observations that support the role of P4/PGR signaling are summarized below.

Each structure is given as a SMILES string. Entries after “also recorded” stand apart in the source; their conditions may differ.

Turning to `Cc1c(-c2ccc(O)cc2)nn(-c2ccc(O)cc2)c1-c1ccc(OCCN2CCCCC2)cc1` [MPP], the “E2-induced expression of Pgr (mRNA)” value in assay [1] is “significantly decreased E2-induced expression of Pgr”.

Consider `CC(=O)[C@H]1CC[C@H]2[C@@H]3CCC4=CC(=O)CC[C@]4(C)[C@H]3CC[C@]12C` [P4, Progesterone], for which the hernia formation entry in assay [2] (treatment started at 9-10 weeks of age, up to 12 weeks) was “did not induce any hernia formation”.

For the compound `N#Cc1ccc(C(c2ccc(C#N)cc2)n2cncn2)cc1` [letrozole, Letrozole], in assay [3], the “prevention of LAM fibrosis and hernia formation” value was “entirely prevents this phenotype”. Moreover, the “reversal of existing hernias” value in assay [4] was “reversed existing hernias and restored normal anatomy in Arom^hum mice”.

Turning to `Cc1cc(-c2ncc(CC(=O)Nc3ccc(-c4cnccn4)cn3)cc2C)ccn1` [LGK974], the “hernia formation / hernia size” value in assay [5] was “None prevented hernia formation”.

Consider `C[C@]12CC[C@@H]3c4ccc(O)cc4C[C@@H](CCCCCCCCC[S+]([O-])CCCC(F)(F)C(F)(F)F)[C@H]3[C@@H]1CC[C@@H]2O` (some centres unmarked) [fulvestrant], for which the “E2-induced expression of Pgr (mRNA)” value in assay [1] is “significantly decreased E2-induced expression of Pgr”. For the same compound, the “protein levels of 3 PGR isoforms (immunoblotting)” value in assay [1] (LAM fibroblasts of WT and Arom^hum mice, ICI with or without E2 for 48 h) is given as “blocked”. The “reversal of large hernias, LAM fibrosis and muscle atrophy” value in assay [6] was “reversed large hernias and restored normal anatomy and reversed LAM tissue fibrosis and muscle atrophy; also recorded: successfully reversed them to normal size, rescued LAM fibrosis, reversed muscle atrophy, and restored normal anatomy”. The “reversal of existing hernias” value in assay [4] is “reversed existing hernias and restored normal anatomy in Arom^hum mice”.

As for `C[C@]12CCC(=O)C[C@@H]1CC[C@@H]1[C@@H]2CC[C@]2(C)[C@@H](O)CC[C@@H]12` [DHT], the “hernia formation / hernia size” value in assay [5] is recorded as “None prevented hernia formation”.

As for `C[C@]12CC[C@@H]3c4ccc(O)cc4CC[C@H]3[C@@H]1CC[C@@H]2O` [E2, Estradiol], in assay [2] (treatment started at the age of 9 weeks), the hernia size induced is on record as 125-175 mm2.
